This assay addresses T1, hPRLR (Homo sapiens, UniProt P16471).
T1 construct: T84 cells express high levels of hPRLR relative to hGHR (>1300:1); host or cells: T84 (human colon cancer), MALME-3M (human melanoma)
T1 sequence (P16471 25-622): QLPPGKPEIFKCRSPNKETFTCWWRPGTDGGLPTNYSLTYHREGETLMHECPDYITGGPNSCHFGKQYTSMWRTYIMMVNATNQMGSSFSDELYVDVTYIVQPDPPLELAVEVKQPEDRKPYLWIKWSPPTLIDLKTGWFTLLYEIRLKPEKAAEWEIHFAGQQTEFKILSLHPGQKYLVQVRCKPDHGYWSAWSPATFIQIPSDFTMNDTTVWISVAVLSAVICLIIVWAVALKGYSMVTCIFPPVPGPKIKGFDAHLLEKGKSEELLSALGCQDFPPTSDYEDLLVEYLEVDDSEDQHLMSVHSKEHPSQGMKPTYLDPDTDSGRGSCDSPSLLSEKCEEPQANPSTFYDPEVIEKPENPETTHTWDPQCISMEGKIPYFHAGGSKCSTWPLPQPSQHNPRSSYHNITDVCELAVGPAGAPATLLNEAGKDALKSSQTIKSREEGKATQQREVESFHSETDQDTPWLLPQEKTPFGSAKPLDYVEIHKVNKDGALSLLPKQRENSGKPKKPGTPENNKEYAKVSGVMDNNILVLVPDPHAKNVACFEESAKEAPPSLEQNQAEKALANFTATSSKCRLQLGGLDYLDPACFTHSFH
As to the kind of experiment: hPRL-induced pSTAT5 in T84 cells, Western blot. Format: cell-based. Particulars: 2.5 nM hPRL, 20 min, S1H concentration not given. As for the experimental part:
SK-MEL-28, MALME-3M, and T84 cells were grown and maintained in Eagle's Minimal Essential Medium. IM9 and L cells were grown in RPMI-1640 media and Dulbecco's modified Eagle's medium, respectively. All growth media was supplemented with 10% fetal bovine serum and 1× antibiotic-antimycotic […] solution. Cells were grown at 37 °C under a 5% CO2 atmosphere in a humidified incubator, and growth media was replaced every 48 h during incubation. No hGH was present in or added to the growth media unless specifically indicated. […]
Following treatment, the cells were harvested at the indicated time points, and the total protein was extracted. […] Sample protein concentration was quantified using a Bradford assay with bovine serum albumin as the protein standard. Absorbance at 595 nm was measured using a Spectramax 250 multimode plate reader (Molecular Devices) and processed using SoftmaxPro v4.7.1 software.
Cytosolic fractions from treated cells were thawed on ice, and 80 μg protein was loaded onto polyacrylamide gels for separation by SDS-PAGE. […] Chemiluminescence signals were detected using a GelDoc (BioRad) fluorescence imager. […]

Regarding `CC[C@H](C)[C@H](NC(=O)[C@H](Cc1ccc(O)cc1)NC(C)=O)C(=O)N1CCC[C@H]1C(=O)N[C@@H](CCCCN)C(=O)N[C@@H](CCC(=O)O)C(=O)N[C@@H](CCC(N)=O)C(=O)N[C@@H](CCCCN)C(=O)N[C@@H](Cc1ccc(O)cc1)C(=O)N[C@@H](CO)C(=O)N[C@@H](Cc1ccccc1)C(=O)N[C@@H](CC(C)C)C(=O)N[C@@H](CCC(N)=O)C(=O)N[C@@H](CC(N)=O)C(=O)N1CCC[C@H]1C(=O)N[C@@H](CCC(N)=O)C(=O)N[C@H](C(N)=O)[C@@H](C)O` [S1H], the “inhibition of hPRL-induced pSTAT5” value came to 13%.

The values are drawn from article PMC8086144, “A novel peptide antagonist of the human growth hormone receptor” (The Journal of Biological Chemistry, 2021).
